Experimental data taken from US20050222402A1, “Dna encoding rat bombesin receptor subtype-3 (brs-3) and uses thereof” (priority 2001, published 2005).
Changes are numbered by the printed parent chain. Non-standard residues stand in square brackets, D forms with d. Residues, ends and D or L forms follow the SMILES beside them. Nle = CCCC[C@H](N)C(=O)O; βAla = NCCC(=O)O

Legend:
Assay type in all cases: cell-based
rat BRS-3 = target: T1, rat BRS-3 (Rattus norvegicus, UniProt Q8K418); experiment: Calcium mobilization assay (FLIPR), transfected 293EBNA cells
T1 construct: utilized to PCR amplify full-length rat BRS-3 cDNA; expressed in transfected cells; host or cells: 293EBNA cells, pE3 expression vector
T1 sequence (Q8K418 1-399): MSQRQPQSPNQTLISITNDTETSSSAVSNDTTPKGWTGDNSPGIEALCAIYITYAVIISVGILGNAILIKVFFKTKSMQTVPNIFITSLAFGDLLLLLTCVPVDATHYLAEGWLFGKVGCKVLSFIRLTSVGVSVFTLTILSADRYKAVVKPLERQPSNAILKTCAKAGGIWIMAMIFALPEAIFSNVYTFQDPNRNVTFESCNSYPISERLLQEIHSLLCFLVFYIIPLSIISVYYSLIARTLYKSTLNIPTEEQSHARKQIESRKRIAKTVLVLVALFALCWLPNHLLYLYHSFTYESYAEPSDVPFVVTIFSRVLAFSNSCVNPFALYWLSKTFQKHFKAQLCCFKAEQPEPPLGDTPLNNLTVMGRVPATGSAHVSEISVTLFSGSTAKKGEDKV
Protocol: Wild type and mutant BRS-3 constructs were transfected by using lipofectamine reagents (Life Technologies, Rockville, Md.) into 293EBNA cells (Invitrogen, Carlsbad, Calif.) which support episomal replication of plasmid containing Epstein Bar virus OriP segment. Stable cell lines were obtained by selection with 250 ug/ml hygromycin. The cells were maintained as monolayers in Dulbecco's modified Eagle's medium (Life Technologies, Rockville, Md.) supplemented with 10% fetal bovine serum and incubated at 37° C. in a humidified 5% CO2 incubator.
(§1) The functional activity of rat BRS-3 was also studied by measuring the agonist-induced calcium mobilization response using a Fluorescence Imaging Plate Reader (Molecular Devices, Sunnyvale, Calif.). Transfected 293EBNA cells were plated onto poly-D-lysine coated 96-well plates with black wall and clear bottom (Becton Dickinson, Franklin Lakes, N.J.). After 16-48 hr culture, the cells were loaded with 4 uM Fluo-3-AM fluorescent calcium-indicator dye (Molecular Probes, Eugene, OR) in assay buffer (Hank's balanced salts solution, 10 mM HEPES, pH7.4, 0.1% bovine serum albumin, 2.5 mM probenecid).
(§2) The changes in intracellular calcium concentration, as indicated by Fluo-3 fluorescence, were immediately measured by FLIPR. Maximal changes in fluorescence over base line were used to determine agonist response.
(§3) The EC50 values were mean±S.E. calculated from dose-response curves of 3-5 repeated experiments using FLIPR assays.

Rat BRS-3/IF (RB3-IF) = target: T2, Rat BRS-3/IF (RB3-IF) (Rattus norvegicus, UniProt Q8K418, V310I/V311F); experiment: Calcium mobilization assay (FLIPR), substitution mutant
T2 construct: expressed in transfected cells; host or cells: 293EBNA cells, pE3 expression vector
T2 sequence (Q8K418 1-399 V310I/V311F): T1 sequence (Q8K418 1-399) with V310I, V311F
Description: (§4) Chimeric rat/human BRS-3 genes and substitution mutant rat BRS-3 genes were constructed by using PCR mutagenesis techniques (Fong, T. in Structure-function analysis of G protein coupled receptors, J, Wess, ed, Wiley-Liss, pp. 1-20, (1999)). All the mutant and wild type BRS-3 genes were cloned into pE3 expression vector which contains CMV early promoter, hygromycin-resistance gene and OriP segment from Epstein-Bar virus.
as §1, §2, §3
(§5) To determine which amino acids in the E3 loop of human BRS-3 conferred dYB activity upon rat BRS-3, several substitution BRS-3 mutants were made in which the amino acids in the E3 loop of rat BRS-3 were substituted with residues that match human BRS-3.

Rat BRS-3/SQT (RB3-SQT) = target: T3, Rat BRS-3/SQT (RB3-SQT) (Rattus norvegicus, UniProt Q8K418, E299Q/S300T/Y298S); experiment: as above
T3 construct: expressed in transfected cells; host or cells: 293EBNA cells, pE3 expression vector
T3 sequence (Q8K418 1-399 Y298S/E299Q/S300T): T1 sequence (Q8K418 1-399) with Y298S, E299Q, S300T
Description: as §4, §1, §2, §3, §5

Rat BRS-3/VD (RB3-VD) = target: T4, Rat BRS-3/VD (RB3-VD) (Rattus norvegicus, UniProt Q8K418, A302V/E303D); experiment: as above
T4 construct: expressed in transfected cells; host or cells: 293EBNA cells, pE3 expression vector
T4 sequence (Q8K418 1-399 A302V/E303D): T1 sequence (Q8K418 1-399) with A302V, E303D
Description: as §4, §1, §2, §3, §5

| Compound | difference in dYB potency between human and rodent BRS-3 (rat BRS-3) | lower affinity of rat BRS-3 to dYB than human BRS-3 (rat BRS-3) | effect of mutation on dYB receptor activity (Rat BRS-3/IF (RB3-IF); RBB3-IF vs rat BRS-3) | improvement of dYB potency in calcium mobilization (Rat BRS-3/SQT (RB3-SQT); RB3-SQT vs rat BRS-3) [fold] | effect of mutation on dYB receptor activity (Rat BRS-3/VD (RB3-VD); RBB3-VD vs rat BRS-3) | EC50 (rat BRS-3) [nM] | EC50 (Rat BRS-3/IF (RB3-IF)) [nM] | EC50 (Rat BRS-3/SQT (RB3-SQT)) [nM] | EC50 (Rat BRS-3/VD (RB3-VD)) [nM] |
| --- | --- | --- | --- | --- | --- | --- | --- | --- | --- |
| CCCC[C@H](NC(=O)[C@H](Cc1ccccc1)NC(=O)[C@H](Cc1c[nH]cn1)NC(=O)CCNC(=O)[C@@H](NC(=O)[C@H](C)NC(=O)[C@H](Cc1c[nH]c2ccccc12)NC(=O)[C@H](CCC(N)=O)NC(=O)[C@H](N)Cc1ccc(O)cc1)C(C)C)C(N)=O [dYB, [D-Tyr6-betaAla11-Phe13-Nle14] bombesin (6-14)] (H-[dY]QWAV[βAla]HF[Nle]-NH2) | approximately 1000 fold | approximately 1000 fold | little effect on the receptor activity | 5 | little effect on the receptor activity |  |  |  |  |
| CCCC[C@H](NC(=O)[C@H](Cc1ccccc1)NC(=O)[C@H](Cc1cnc[nH]1)NC(=O)CCNC(=O)[C@@H](NC(=O)[C@H](C)NC(=O)[C@H](Cc1c[nH]c2ccccc12)NC(=O)[C@H](CCC(N)=O)NC(=O)[C@H](N)Cc1ccc(O)cc1)C(C)C)C(N)=O [dYB, [D-Tyr6-betaAla11-Phe13-Nle14] bombesin (6-14)] (H-[dY]QWAV[βAla]HF[Nle]-NH2) |  |  |  |  |  | 2200 ± 500 | 1300 ± 230 | 390 ± 80 | 930 ± 150 |
